Reference: patent publication US10022449B2, “Synergistic antiviral composition and use thereof” (priority 2009, dated 2018)

Columns and labels:
[1] = test system: influenza A/PR/8/34 virus; experiment: Survival of mice infected with lethal influenza virus, treatment starting 48 hours post infection (Example 1); format: in vivo, C57B16 mice; conditions: lethal dose (10x LD50) i.n.; treatment from 48 hours post infection, twice daily; iota-carrageenan 1200 μg/ml 25 μl per nostril i.n.; TAMIFLU 10 mg/kg/d per os; 10 mice per group
Protocol: (§1) 40 C57B16 mice were infected with a lethal dose (10× LD50) of influenza A/PR/8/34 virus by intranasal instillation (i.n.) without anaesthesia. After infection of the nasal cavity the virus spreads in the respiratory tract and finally causes a lethal pneumonia in mice. This model mimics the natural influenza infection in humans via the respiratory tract that sometimes causes severe conditions.
The mice were divided into four groups of 10 mice each. 48 hours post infection the mice were treated twice daily i.n. without anaesthesia, wherein the first group was treated with a placebo (25 μl 0.5% aqueous NaCl-solution per nostril) as a negative control and the second group was treated solely with 25 μl per nostril of a aqueous iota-carrageenan polymer solution at a concentration of 1200 μg/ml. Group three and four were fed with 10 mg/kg/d of TAMIFLU® per os, wherein the third group additionally received the iota-carrageenan polymer intranasally at the above concentration whereas the fourth group received the intranasal placebo treatment in addition to the oral Tamiflu® administration. […] The survival of the animals was determined daily as a surrogate parameter for health. The difference in the number of surviving animals was evaluated using a log-rank test.

[2] = test system: influenza A/PR/8/34 virus; experiment: Mean weight of mice infected with lethal influenza virus, treatment starting 24 hours post infection (Example 2); format: in vivo, C57B16 mice; conditions: treatment from 24 hours post infection; single actives: first seven days; combination: from day 3 onwards (pmax<0,004), t-test
[3] = test system: influenza A/PR/8/34 virus; experiment: Survival of influenza-infected mice, iota-carrageenan and oseltamivir, treatment starting 48 hours post infection (Example 3); format: in vivo; conditions: treatment from 48 hours post infection, twice daily; oseltamivir 5 mg/kg/d orally; iota-carrageenan 1200 μg/ml i.n. (120 μg per day); 10 mice per group
Description: as §1
The infection of the mice was done as described in Example 1. The mice were divided into four groups of 10 mice each. 48 hours post infection the mice were treated twice daily i.n. without anaesthesia, wherein the first group was treated with a placebo (25 μl 0.5% aqueous NaCl-solution per nostril) as a negative control, the second group was treated orally with oseltamivir at a dosage of 5 mg/kg/d, the third group was treated with 25 μl per nostril of an aqueous iota-carrageenan polymer solution at a concentration of 1200 μg/ml, and the fourth group was treated with a combination of iota-carrageenan and oseltamivir twice daily, wherein oseltamivir was administered orally at a dosage of 5 mg/kg/d and the total amount of iota-carrageenan administered intranasally was 100 μl corresponding to an amount of 120 μg per day. The survival of the animals was determined daily as a surrogate parameter for health. The difference in the number of surviving animals was evaluated using a log-rank test.

[4] = test system: influenza virus; conditions: cited from earlier work; for reduction of median time until detection of symptom alleviation: individuals of the YOPI group (young, old, pregnant, immunocompromised); for reduction of median time until detectable symptom alleviation: non-risk adults group (not YOPI)
[5] = test system: influenza A/PR/8/34 virus; experiment: Survival of influenza-infected mice, iota-/kappa-carrageenan and zanamivir, treatment starting 48 hours post infection (Example 4); format: in vivo; conditions: treatment from 48 hours post infection; zanamivir 0.5 mg/kg/d intranasally; carrageenan polymer 120 μg per day intranasally; 20 mice per group
[6] = cited from earlier work

| Compound | survival of mice (survivors out of 10) [1] | weight loss compared to placebo treatment [2] | survival of mice (survivors out of 10) [3] | reduction of median time until detection of symptom alleviation [4] | reduction of median time until detectable symptom alleviation [4] | survival of mice (survivors out of 20) [5] | Tmax ([6]; in vivo) | absolute bioavailability ([6]; orally administered, on average) |
| --- | --- | --- | --- | --- | --- | --- | --- | --- |
| CCOC(=O)C1=C[C@@H](OC(CC)CC)[C@H](NC(C)=O)[C@@H](N)C1 [TAMIFLU®, oseltamivir phosphate] | 3/10 | failed to provide a significant benefit with regard to weight loss | – | – | – | – | – | – |
| CCOC(=O)C1=C[C@@H](OC(CC)CC)[C@H](NC(C)=O)[C@@H](N)C1 [oseltamivir] | – | – | 3/10 | 0.74 days | 0.55 days | – | – | – |
| CC(=O)N[C@H]1[C@H]([C@H](O)[C@H](O)CO)OC(C(=O)O)=C[C@@H]1N=C(N)N [zanamivir] | – | – | – | 0.98 days | 0.57 days | 7/20 | 1 to 2 h | about 2% |
